The source of these data is the supplement of paper PMC10307832.

Test in all cases: relative viability (nuclei count vs DMSO), 5 days (fraction); higher = more cells survive
Compound in assay [1]: Cc1ccc2nc(NCCN)c3ncc(C)n3c2c1 + Nc1nc2[nH]cc(CCc3ccc(C(=O)N[C@@H](CCC(=O)O)C(=O)O)cc3)c2c(=O)[nH]1 [Pemetrexed] (partner 0.2 µM)
Put shortly: (§1)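 Each reported value is a median over duplicate plates. It expresses relative viability: treated-well nuclei count divided by vehicle-well nuclei count. Lung cancer cell lines in 1536-well plates were dosed by pin tool a day after seeding, alone with one drug or with a fixed anchor-drug dose plus five library-drug doses (not always all listed) in √10 steps, and nuclei were counted after 5 days.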

Compound in assay [2]: Cc1ccc2nc(NCCN)c3ncc(C)n3c2c1 + Cc1nc(Nc2ncc(C(=O)Nc3c(C)cccc3Cl)s2)cc(N2CCN(CCO)CC2)n1 [Dasatinib] (partner 0.075 µM)
Put shortly:
as §1

Compound in the assay “Salubrinal + Luminespib”: O=C(/C=C/c1ccccc1)NC(NC(=S)Nc1cccc2cccnc12)C(Cl)(Cl)Cl [Salubrinal] + CCNC(=O)c1noc(-c2cc(C(C)C)c(O)cc2O)c1-c1ccc(CN2CCOCC2)cc1 [Luminespib] (partner 0.01 µM)
Put shortly: as §1

Compound in assay [3]: Cc1ccc2nc(NCCN)c3ncc(C)n3c2c1 + C[C@@H](Oc1cc(-c2cnn(C3CCNCC3)c2)cnc1N)c1c(Cl)ccc(F)c1Cl [Crizotinib] (partner 1 µM)
Put shortly: as §1

Consider UMC-11, for which the relative viability worked out at 0.858 in assay [1] (first compound 0.04 µM); 0.744 in assay [1] (first compound 0.1265 µM); 0.808 in assay [1] (first compound 0.4 µM); 0.734 in assay [1] (first compound 1.265 µM); 0.674 in assay [1] (first compound 4 µM); 0.475 in assay [2] (first compound 0.04 µM). For the same cell line, the relative viability came to 0.477 in assay [2] (first compound 0.1265 µM); 0.431 in assay [2] (first compound 0.4 µM); 0.407 in assay [2] (first compound 1.265 µM); 0.387 in assay [2] (first compound 4 µM); 1.06 in the assay with Salubrinal + Luminespib (first compound 0.08 µM); 0.835 with Salubrinal + Luminespib (first compound 0.253 µM). In addition, the relative viability was 1.14 with Salubrinal + Luminespib (first compound 0.8 µM); 1.05 with Salubrinal + Luminespib (first compound 2.53 µM); 1.14 in the assay with Salubrinal + Luminespib (first compound 8 µM); 0.7 in assay [3] (first compound 0.04 µM); 0.57 in assay [3] (first compound 0.1265 µM); 0.6 in assay [3] (first compound 0.4 µM). Further, the results for the relative viability in assay [3] (first compound 1.265 µM) and in assay [3] (first compound 4 µM) were 0.646 and 0.481, respectively.
